Conditions: 323.15 K, Liquid, Vibrating tube method

CCCC(=O)OCC(COC(=O)CCC)(COC(=O)CCC)COC(=O)CCC [pentaerythritol tetrabutyrate]
Conditions | mass density [kg/m3]
15786 kPa | 1036
15818 kPa | 1036
15856 kPa | 1036.1
15888 kPa | 1036
15920 kPa | 1036
15952 kPa | 1036.1
15991 kPa | 1036.1
16024 kPa | 1036.1
16057 kPa | 1036.1
16097 kPa | 1036.2
16131 kPa | 1036.3
16164 kPa | 1036.2
16204 kPa | 1036.3
16238 kPa | 1036.4
16305 kPa | 1036.3
16381 kPa | 1036.4
16759 kPa | 1036.6
16795 kPa | 1036.7
16831 kPa | 1036.7
16875 kPa | 1036.7
18410 kPa | 1037.7
18440 kPa | 1037.7
18726 kPa | 1037.9
18756 kPa | 1038
19188 kPa | 1038.2
19252 kPa | 1038.3
19278 kPa | 1038.4
19311 kPa | 1038.3
19396 kPa | 1038.4
19436 kPa | 1038.4
19469 kPa | 1038.4
19501 kPa | 1038.4
19541 kPa | 1038.4
19574 kPa | 1038.4
19608 kPa | 1038.4
19648 kPa | 1038.6
19682 kPa | 1038.6
19970 kPa | 1038.7
20047 kPa | 1038.7
20089 kPa | 1038.7
20124 kPa | 1038.7
20159 kPa | 1038.9
20202 kPa | 1038.8
20238 kPa | 1039
20546 kPa | 1039.1
20584 kPa | 1039
21551 kPa | 1039.8
21639 kPa | 1039.7
21673 kPa | 1039.9
21714 kPa | 1039.9
21749 kPa | 1039.8
21784 kPa | 1039.8
21826 kPa | 1039.9
21862 kPa | 1040
21898 kPa | 1040
21934 kPa | 1040
21976 kPa | 1040
22011 kPa | 1040
22048 kPa | 1040
22091 kPa | 1040.1
22126 kPa | 1040
22162 kPa | 1040.2
22206 kPa | 1040.1
22243 kPa | 1040.2
22279 kPa | 1040.1
22323 kPa | 1040.3
22360 kPa | 1040.1
22398 kPa | 1040.2
22443 kPa | 1040.4
22480 kPa | 1040.3
22518 kPa | 1040.3
22563 kPa | 1040.3
22602 kPa | 1040.4
23845 kPa | 1041.3
23898 kPa | 1041.2
23944 kPa | 1041.2
23987 kPa | 1041.3
24030 kPa | 1041.3
24100 kPa | 1041.4
24135 kPa | 1041.4
24290 kPa | 1041.4
24326 kPa | 1041.4
24362 kPa | 1041.4
24397 kPa | 1041.5
24789 kPa | 1041.8
24827 kPa | 1041.8
24872 kPa | 1041.9
24910 kPa | 1041.8
25317 kPa | 1042.1
25357 kPa | 1042.1
25403 kPa | 1042.2
25442 kPa | 1042.2
25481 kPa | 1042.2
25528 kPa | 1042.2
25569 kPa | 1042.3
25608 kPa | 1042.2
25656 kPa | 1042.3
25696 kPa | 1042.3
25736 kPa | 1042.3
25784 kPa | 1042.5
26584 kPa | 1042.8
27050 kPa | 1043.1
27094 kPa | 1043.1
27148 kPa | 1043.2
27193 kPa | 1043.3
27239 kPa | 1043.4
27294 kPa | 1043.3
27340 kPa | 1043.4
27386 kPa | 1043.3
27432 kPa | 1043.4
27488 kPa | 1043.4
27535 kPa | 1043.5
27876 kPa | 1043.7
27985 kPa | 1043.8
28093 kPa | 1043.7
28151 kPa | 1044
28200 kPa | 1043.9
28250 kPa | 1043.9
28409 kPa | 1044
28460 kPa | 1044.1
28519 kPa | 1044
28562 kPa | 1044.2
28628 kPa | 1044.1
28679 kPa | 1044.2
28730 kPa | 1044.2
29066 kPa | 1044.5
29135 kPa | 1044.4
29177 kPa | 1044.5
29260 kPa | 1044.5
29301 kPa | 1044.6
29338 kPa | 1044.7
29373 kPa | 1044.7
29415 kPa | 1044.7
29449 kPa | 1044.6
29492 kPa | 1044.7
29529 kPa | 1044.8
29563 kPa | 1044.8
29598 kPa | 1044.6
29642 kPa | 1044.9
29678 kPa | 1044.8
29720 kPa | 1044.9
29756 kPa | 1044.8
29793 kPa | 1044.8
29839 kPa | 1044.9
30028 kPa | 1045.1
30074 kPa | 1045.1
